Assay results: US8304557B2, “Fused heterocycle derivatives and use thereof” (Takeda Pharmaceutical Company Limited, priority 2007, dated 2012)

Legend:
[1] = tested on: Human umbilical vein vascular endothelial cells (HUVEC); experiment: Vascular endothelial cell growth inhibitory test (VEGF-stimulated HUVEC, WST-8); type: cell-based; settings: 120 h, VEGF 120 ng/mL solution added, 5 days of culture, read-out: IC50 value, vascular endothelial cell growth inhibition
Description: To be specific, HUVEC was suspended in a vascular endothelial cell medium containing the aforementioned 3% bovine fetal serum and plated in a 96 well flat bottom plate by 50 μL (3000 cells) each well. After culture overnight, various concentrations of the test substance and 120 ng/mL of vascular endothelial growth factor (VEGF) were dissolved in a vascular endothelial cell medium containing 3% bovine fetal serum and added to each well by 50 μL. […] The absorbance at 450 nm was measured by a microtiter plate reader and the cell growth inhibitory activity was determined.

[2] = biological target: T1, Platelet-derived growth factor receptor α (PDGFRα) intracellular domain protein (Homo sapiens, UniProt P16234); experiment: PDGFRα kinase inhibitory activity (AlphaScreen); type: biochemical; settings: ATP 25 μM solution; 25° C., 30 min; read-out: IC50 value, PDGFRα kinase inhibition
T1 construct: 125 ng/ml of PDGFα intracellular domain protein (UPSTATE); purchased UPSTATE
T1 sequence (P16234 550-1089 limits assumed): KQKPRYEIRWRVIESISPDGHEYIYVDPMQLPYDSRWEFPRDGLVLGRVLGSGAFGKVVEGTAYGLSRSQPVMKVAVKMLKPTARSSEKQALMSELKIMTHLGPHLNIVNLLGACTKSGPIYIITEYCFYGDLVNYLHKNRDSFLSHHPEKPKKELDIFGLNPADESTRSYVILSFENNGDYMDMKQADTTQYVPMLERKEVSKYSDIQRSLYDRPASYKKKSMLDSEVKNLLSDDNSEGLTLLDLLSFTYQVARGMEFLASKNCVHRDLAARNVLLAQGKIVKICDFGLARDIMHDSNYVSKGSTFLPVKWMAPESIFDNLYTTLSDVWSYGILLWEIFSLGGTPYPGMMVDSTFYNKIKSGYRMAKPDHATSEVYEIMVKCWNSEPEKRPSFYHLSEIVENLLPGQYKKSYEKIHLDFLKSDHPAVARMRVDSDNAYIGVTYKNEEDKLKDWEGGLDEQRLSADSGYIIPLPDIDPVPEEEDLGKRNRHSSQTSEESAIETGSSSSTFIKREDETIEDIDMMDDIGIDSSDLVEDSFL
Description: (§1) A test compound dissolved in dimethyl sulfoxide (DMSO) was diluted with a buffer (50 mM Tris-HCl (pH 7.5), 5 mM MgCl2, 5 mM MnCl2, 2 mM dithiothreitol, 0.01% Tween-20). […] The reaction solution was allowed to stand at 25° C. for 16 hrs, and the wells were counted using a plate reader Fusion™ (PerkinElmer). The kinase inhibitory rate (%) of the test compound was calculated by the following formula: Inhibitory rate(%)=(1−(count of test compound−blank)÷(control−blank))×100
(§2) The count of the solution reacted without addition of the compound was used as a “control”, and the count of the solution without the compound and ATP was used as a “blank”.

[3] = biological target: T2, PDGFRβ intracellular domain protein (Homo sapiens, UniProt P09619); experiment: PDGFRβ kinase inhibitory activity (AlphaScreen); type: biochemical; settings: ATP 50 μM solution; 25° C., 60 min; read-out: IC50 value, PDGFRβ kinase inhibition
T2 construct: 125 ng/ml of PDGFRβ intracellular domain protein (UPSTATE); purchased UPSTATE
T2 sequence (P09619 554-1106 limits assumed): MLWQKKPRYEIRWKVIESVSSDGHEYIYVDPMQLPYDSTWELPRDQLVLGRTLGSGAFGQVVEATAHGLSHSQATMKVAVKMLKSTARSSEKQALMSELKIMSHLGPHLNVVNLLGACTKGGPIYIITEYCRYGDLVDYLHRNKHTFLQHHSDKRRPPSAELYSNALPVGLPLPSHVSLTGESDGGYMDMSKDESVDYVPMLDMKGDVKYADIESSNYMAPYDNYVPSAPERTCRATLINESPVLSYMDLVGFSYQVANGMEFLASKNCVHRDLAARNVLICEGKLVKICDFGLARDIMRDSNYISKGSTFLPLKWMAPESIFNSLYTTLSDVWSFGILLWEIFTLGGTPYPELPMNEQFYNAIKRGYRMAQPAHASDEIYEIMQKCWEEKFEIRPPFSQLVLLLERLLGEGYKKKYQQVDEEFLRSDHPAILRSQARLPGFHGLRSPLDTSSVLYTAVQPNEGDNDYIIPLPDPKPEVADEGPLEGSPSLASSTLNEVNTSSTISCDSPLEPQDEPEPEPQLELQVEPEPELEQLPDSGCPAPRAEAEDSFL
Description: as §1, with “hr,” for “hrs,”
as §2

[4] = biological target: VEGFR2 intracellular domain protein (Homo sapiens, UniProt P35968); experiment: VEGF receptor 2 kinase inhibitory activity (AlphaScreen); settings: read-out: The inhibitory rate of the compounds at 1 μM (VEGF receptor 2 kinase)
Chain of VEGFR2 intracellular domain protein (P35968 786-1356 limits assumed): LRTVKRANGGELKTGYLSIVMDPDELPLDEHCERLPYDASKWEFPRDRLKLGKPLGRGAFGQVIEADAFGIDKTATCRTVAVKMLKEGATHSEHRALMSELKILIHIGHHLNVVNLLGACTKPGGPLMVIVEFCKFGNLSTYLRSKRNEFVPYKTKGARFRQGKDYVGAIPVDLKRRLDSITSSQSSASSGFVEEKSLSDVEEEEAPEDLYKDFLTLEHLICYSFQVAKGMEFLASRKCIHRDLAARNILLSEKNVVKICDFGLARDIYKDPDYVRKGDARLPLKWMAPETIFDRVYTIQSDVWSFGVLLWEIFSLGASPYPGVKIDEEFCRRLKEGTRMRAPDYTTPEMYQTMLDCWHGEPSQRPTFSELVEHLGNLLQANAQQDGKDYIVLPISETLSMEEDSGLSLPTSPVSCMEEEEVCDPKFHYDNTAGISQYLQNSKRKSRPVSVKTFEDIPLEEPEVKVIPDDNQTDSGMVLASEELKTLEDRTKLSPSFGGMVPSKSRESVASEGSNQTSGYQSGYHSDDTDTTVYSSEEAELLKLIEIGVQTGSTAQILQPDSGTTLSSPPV
Description: Human vascular endothelial growth factor receptor 2 (hereinafter to be referred to as VEGFR2) gene was cloned by PCR using cDNA Libraries Human Placenta (Clontech) as a template.
The PCR reaction was conducted using a KOD-plus kit (TOYOBO). […] Furthermore, using BAC-TO-BAC Baculovirus Expression System (Invitrogen), virus stock BAC-VEGFR2 of recombinant baculovirus was prepared.
SF-21 cells were sown at 1×10^6 cells/mL to Sf-900II SEM medium (1 L, Invitrogen) containing 10% fetal bovine serum (trace), 50 mg/L Gentamicin (Invitrogen) and 0.1% Pluronic F-68 (Invitrogen), and shaking culture was performed using a 2 L volume Erlenmeyer flask at 27° C., 100 rpm. After culturing for 24 hrs, recombinant baculovirus BAC-VEGFR2 (13.4 mL) was added to the mixture, and the mixture was further cultured for 3 days. The culture medium was centrifuged at 2,000 rpm for 5 min to give virus-infected cells. The infected cells were washed with a phosphate buffered saline (Invitrogen), centrifuged under the same conditions, and the cells were preserved at −80° C. The cryopreserved cells were thawed in ice, suspended in buffer A (50 mM Tris buffer (30 mL, pH 7.4) containing 20% glycerol, 0.15 M NaCl) supplemented with Complete Protease Inhibitor (Boehringer), and ruptured 3 times with a Polytron homogenizer (Kinematica) at 20,000 rpm for 30 sec. The ruptured medium was clarified by centrifugation at 40,000 rpm for 30 min and filtered with a 0.45 μm filter. The filtrate was passed through a column packed with Anti-FLAG M2 Affinity Gel (4 mL, Sigma) at a flow rate of about 0.5 mL/min. The column was washed with buffer A, and eluted with buffer A containing 100 μg/mL of FLAG peptide. The eluate was concentrated with Vivaspin 20 (Vivascience) having a molecular weight cut off of 30K. The buffer of this concentrate was exchanged using NAP™ 25 column (Amersham Bioscience) equilibrated with buffer A. The fractions containing intracellular domain protein of VEGFR2 were collected, glycerol was added to the final concentration of 50% and cryopreserved at −80° C.
A test compound dissolved in DMSO was diluted with a buffer (50 mM Tris-HCl (pH 7.5), 5 mM MgCl2, 5 mM MnCl2, 2 mM dithiothreitol, 0.01% Tween-20). To this compound solution (5 μL) was added a buffer (10 μL) containing 50 ng/mL of VEGFR2 intracellular domain protein and 250 ng/mL of biotin labeled polypeptide biotinyl-poly-Glu:Tyr (4:1, CIS bio International). […] The reaction solution was allowed to stand at 25° C. for 16 hrs, and the wells were counted using a plate reader Fusion™ (PerkinElmer). The kinase inhibitory rate (%) of the test compound was calculated by the following formula: Inhibitory rate(%)=(1−(count of test compound−blank)÷(control−blank))×100

Row | SMILES | IC50 [2] [nM] | IC50 [3] [nM] | inhibition at 1 µM [4] [%] | IC50 [1] [nM]
1 | Cc1nc(C(=O)Nc2cccc(Oc3ccc4nc(NC(=O)C5CC5)nn4c3)c2)c(C(F)(F)F)o1 [Example 22, N-[3-({2-[(cyclopropylcarbonyl)amino][1,2,4]triazolo[1,5-a]pyridin-6-yl}oxy)phenyl]-2-methyl-5-(trifluoromethyl)-1,3-oxazole-4-carboxamide] | ≤ 500 | ≤ 500 | ≥ 90 | ≤ 500
2 | Cc1cc(C(=O)Nc2cccc(Oc3ccc4nc(NC(=O)C5CC5)sc4n3)c2)n(C)n1 [Example 99, N-[3-({2-[(cyclopropylcarbonyl)amino][1,3]thiazolo[5,4-b]pyridin-5-yl}oxy)phenyl]-1,3-dimethyl-1H-pyrazole-5-carboxamide] | ≤ 500 | – | ≥ 90 | ≤ 500
3 | Cc1cc(C(=O)Nc2cc(Oc3ccc4nc(NC(=O)C5CC5)nn4c3)ccc2F)n(C)n1 [Example 23-2, N-[5-({2-[(cyclopropylcarbonyl)amino][1,2,4]triazolo[1,5-a]pyridin-6-yl}oxy)-2-fluorophenyl]-1,3-dimethyl-1H-pyrazole-5-carboxamide] | – | – | ≥ 90 | ≤ 500
4 | Cc1cc(C(=O)Nc2cc(Oc3ccc4nc(NC(=O)C5CC5)nn4c3)ccc2C)n(C)n1 [Example 17-2, N-[5-({2-[(cyclopropylcarbonyl)amino][1,2,4]triazolo[1,5-a]pyridin-6-yl}oxy)-2-methylphenyl]-1,3-dimethyl-1H-pyrazole-5-carboxamide] | ≤ 500 | ≤ 500 | – | ≤ 500

Second part, led by results:

Row | IC50 [2] [nM] | IC50 [3] [nM] | inhibition at 1 µM [4] [%] | SMILES | IC50 [1] [nM]
5 | ≤ 500 | ≤ 500 | ≥ 90 | CCNC(=O)Nc1cn2cc(Oc3ccc(F)c(NC(=O)c4cc(C)nn4C)c3)ccc2n1 [Example 10, N-{5-[(2-{[(ethylamino)carbonyl]amino}imidazo[1,2-a]pyridin-6-yl)oxy]-2-fluorophenyl}-1,3-dimethyl-1H-pyrazole-5-carboxamide] | ≤ 500
6 | ≤ 500 | ≤ 500 | ≥ 90 | Cc1cc(C(=O)Nc2cccc(Oc3ccn4nc(NC(=O)C5CC5)nc4c3)c2)n(C)n1 [Example 96-4, N-[3-({2-[(cyclopropylcarbonyl)amino][1,2,4]triazolo[1,5-a]pyridine-7-yl}oxy)phenyl]-1,3-dimethyl-1H-pyrazole-5-carboxamide] | ≤ 500
7 | ≤ 500 | ≤ 500 | ≥ 90 | Cc1cccnc1C(=O)Nc1cccc(Oc2ccc3nc(NC(=O)C4CC4)cn3c2)c1 [Example 7-4, N-[3-({2-[(cyclopropylcarbonyl)amino]imidazo[1,2-a]pyridin-6-yl}oxy)phenyl]-3-methylpyridine-2-carboxamide] | ≤ 500
8 | ≤ 500 | ≤ 500 | ≥ 90 | Cc1cccc(C(=O)Nc2cccc(Oc3ccc4nc(NC(=O)C5CC5)cn4c3)c2)n1 [Example 127-2, N-[3-({2-[(cyclopropylcarbonyl)amino]imidazo[1,2-a]pyridin-6-yl}oxy)phenyl]-6-methylpyridine-2-carboxamide] | ≤ 500
9 | ≤ 500 | – | ≥ 90 | Cc1cc(C(=O)Nc2cccc(Oc3ccc4nc(NC(=O)C5CC5)sc4c3)c2)n(C)n1 [Example 97-2, N-[3-({2-[(cyclopropylcarbonyl)amino]-1,3-benzothiazol-6-yl}oxy)phenyl]-1,3-dimethyl-1H-pyrazole-5-carboxamide] | ≤ 500
10 | ≤ 500 | ≤ 500 | ≥ 90 | CCn1nc(C)cc1C(=O)Nc1cc(Oc2ccc3nc(NC(=O)C4CC4)nn3c2)ccc1F [Example 72, N-[5-({2-[(cyclopropylcarbonyl)amino][1,2,4]triazolo[1,5-a]pyridin-6-yl}oxy)-2-fluorophenyl]-1-ethyl-3-methyl-1H-pyrazole-5-carboxamide] | ≤ 500
